Assay results reported in patent US20090042883A1, “ANTITUMOR AGENT” (KYOWA HAKKOKOGYO CO., priority 2005, published 2009).

Legend:
Assay type in all cases: cell-based
[1] = test system: human chronic myelocytic leukemia K562 cells; test: Growth inhibition test on human chronic myelocytic leukemia K562 cells (WST-1, % viability); settings: test compound 10 μmol/L, 72 hours, cells without test compound = 100%
Protocol: One thousand cells of human chronic myelocytic leukemia K562 were inoculated into each well of a 96-well microplate (manufactured by Nunc Corp.), and using RPMI1640 medium (culture medium) containing 10% fetal calf serum (FCS), preculturing was performed in a 5% carbon dioxide incubator at 37° C. for 24 hours. A dimethyl sulfoxide (DMSO) solution of each test compound prepared in a concentration of 10 mmol/L was diluted with the culture medium to a final concentration of 10 μmol/L, and the diluted solution was added to each well. The individual wells were further cultured in the 5% carbon dioxide incubator at 37° C. for 72 hours. After completion of the culturing, 10 μL of WST-1 {4-[3-(4-Iodophenyl)-2-(4-nitrophenyl)-2H-5-tetrazolio]-1,3-benzene disulfonate} labeled mixture (manufactured by Roche Diagnostic Corp.) was added to each well, and culturing was performed in the 5% carbon dioxide incubator at 37° C. for 2 hours. Using a microplate spectrophotometer (SpectraMax 340PC384; manufactured by Nihon Molecular Devices), the absorbance of each well was measured at 450 nm and 655 nm. The value obtained by subtracting the absorbance at 450 nm from the absorbance at 655 nm (absorbance difference) was calculated for each well. The value for cells not incorporated with a test compound was designated as 100%, and the value at a well not containing cells was designated as 0%. By comparing these values with the absorbance difference obtained at the well in which each test compound was added, the cell viability (% viability) after treatment with the test compound was calculated.

[2] = test system: human acute myelocytic leukemia MV4; 11 cells; test: Growth inhibition test on human acute myelocytic leukemia MV4; 11 cells (WST-1, % viability); settings: test compound 10 μmol/L, cells without test compound = 100%
Protocol: (§1) Ten thousand cells of human acute myelocytic leukemia MV4; 11 were inoculated into each well of a 96-well microplate (manufactured by Nunc Corp.), and using IMDM medium (culture medium) containing 10% FCS, preculturing was performed in a 5% carbon dioxide incubator at 37° C. for 24 hours. A DMSO solution of each test compound prepared in a concentration of 10 mmol/L was diluted with the culture medium to a final concentration of 10 μmol/L, and the diluted solution was added to each well. The individual wells were further cultured in the 5% carbon dioxide incubator at 37° C. for 72 hours. After completion of the culturing, 10 μL of WST-1 labeled mixture (manufactured by Roche Diagnostic Corp.) was added to each well, and culturing was performed in the 5% carbon dioxide incubator at 37° C. for 1 hour. Using a microplate spectrophotometer (SpectraMax 340PC384; manufactured by Nihon Molecular Devices), the absorbance of each well was measured at 450 nm and 655 nm. The value obtained by subtracting the absorbance at 450 nm from the absorbance at 655 nm (absorbance difference) was calculated for each well. The value for cells not incorporated with a test compound was designated as 100%, and the value at a well not containing cells was designated as 0%. By comparing these values with the absorbance difference obtained at the well in which each test compound was added, the cell viability (% viability) after treatment with the test compound was calculated.

[3] = test system: human renal cancer OS-RC-2 cells; test: Growth inhibition test on human renal cancer OS-RC-2 cells (WST-1, % viability); settings: test compound 10 μmol/L, 72 hours, cells without test compound = 100%
Protocol: as §1, with “One” for “Ten”, “renal cancer OS-RC-2” for “acute myelocytic leukemia MV4; 11”, “RPMI1640” for “IMDM”, “2 hours.” for “1 hour.”, “(Model 550;” for “(SpectraMax 340PC384;”, “Bio-Rad),” for “Nihon Molecular Devices),”

[4] = test system: human prostate cancer 22Rv1 cells; test: Growth inhibition test on human prostate cancer 22Rv1 cells (WST-1, % viability); settings: test compound 10 μmol/L, 72 hours, cells without test compound = 100%
Protocol: as §1, with “Five” for “Ten”, “prostate cancer 22Rv1” for “acute myelocytic leukemia MV4; 11”, “RPMI1640” for “IMDM”, “2 hours.” for “1 hour.”, “(Model 550;” for “(SpectraMax 340PC384;”, “Bio-Rad),” for “Nihon Molecular Devices),”

For `CCc1c(O)cc(O)c(C(=O)c2ccc(OC(C)C)cc2)c1CC(=O)N(CCOC)CCN1CCOCC1` [Compound 134], the “Viability of tumor cells (% viability), Human chronic myelocytic leukemia K562 cells” value [1] was 4%, the “Viability of tumor cells (% viability), Human acute myelocytic leukemia MV4; 11 cells” value [2] was 0% and the “Viability of tumor cells (% viability), Human renal cancer OS-RC-2 cells” value [3] was 21%. For the same compound, the “Viability of tumor cells (% viability), Human prostate cancer 22Rv1 cells” value [4] was 6%.
In the case of `CCc1c(O)cc(O)c(C(=O)c2ccc(OCCN3CCOCC3)c(OC)c2)c1CC(=O)N(CCOC)CCOC.Cl` [Compound 139], the “Viability of tumor cells (% viability), Human chronic myelocytic leukemia K562 cells” value [1] is reported as 4%, the “Viability of tumor cells (% viability), Human acute myelocytic leukemia MV4; 11 cells” value [2] is reported as 1% and the “Viability of tumor cells (% viability), Human renal cancer OS-RC-2 cells” value [3] is reported as 21%. The “Viability of tumor cells (% viability), Human prostate cancer 22Rv1 cells” value [4] was 5%.
For `CCc1c(O)cc(O)c(C(=O)c2ccc(OC)c(OC)c2)c1CC(=O)N(CCO)CCOC` [Compound 56], the “Viability of tumor cells (% viability), Human chronic myelocytic leukemia K562 cells” value [1] was 5%, the “Viability of tumor cells (% viability), Human acute myelocytic leukemia MV4; 11 cells” value [2] was 0% and the “Viability of tumor cells (% viability), Human renal cancer OS-RC-2 cells” value [3] was 18%. For the same compound, the “Viability of tumor cells (% viability), Human prostate cancer 22Rv1 cells” value [4] was 5%.
`CCc1c(O)cc(O)c(C(=O)c2ccc(OC)cc2)c1CC(=O)N1CCN(c2ccccc2C#N)CC1` [Compound 17] was tested, and the “Viability of tumor cells (% viability), Human chronic myelocytic leukemia K562 cells” value [1] was 4%, the “Viability of tumor cells (% viability), Human acute myelocytic leukemia MV4; 11 cells” value [2] was 0% and the “Viability of tumor cells (% viability), Human renal cancer OS-RC-2 cells” value [3] was 20%. The “Viability of tumor cells (% viability), Human prostate cancer 22Rv1 cells” value [4] was 5%.
`CCc1c(O)cc(O)c(C(=O)c2ccc(OC)cc2)c1CC(=O)N1CCc2cc(OC)c(OC)cc2C1` [Compound 38] was tested, and the “Viability of tumor cells (% viability), Human chronic myelocytic leukemia K562 cells” value [1] was 4%, the “Viability of tumor cells (% viability), Human acute myelocytic leukemia MV4; 11 cells” value [2] was 0% and the “Viability of tumor cells (% viability), Human renal cancer OS-RC-2 cells” value [3] was 18%. For the same compound, the “Viability of tumor cells (% viability), Human prostate cancer 22Rv1 cells” value [4] was 4%.
`CCc1c(O)cc(O)c(C(=O)c2ccc(S(C)(=O)=O)cc2)c1CC(=O)N(CCOC)CCOC` [Compound 107] was tested, and the “Viability of tumor cells (% viability), Human chronic myelocytic leukemia K562 cells” value [1] was 5%, the “Viability of tumor cells (% viability), Human acute myelocytic leukemia MV4; 11 cells” value [2] was 0% and the “Viability of tumor cells (% viability), Human renal cancer OS-RC-2 cells” value [3] was 18%. For the same compound, the “Viability of tumor cells (% viability), Human prostate cancer 22Rv1 cells” value [4] was 5%.
In the case of `CCc1c(O)cc(O)c(C(=O)c2ccc(OC)cc2)c1CC(=O)N(C)Cc1cccnc1` [Compound 16], the “Viability of tumor cells (% viability), Human chronic myelocytic leukemia K562 cells” value [1] is reported as 4%, the “Viability of tumor cells (% viability), Human acute myelocytic leukemia MV4; 11 cells” value [2] is reported as 0% and the “Viability of tumor cells (% viability), Human renal cancer OS-RC-2 cells” value [3] is reported as 17%. The “Viability of tumor cells (% viability), Human prostate cancer 22Rv1 cells” value [4] was 5%.
In the case of `CCc1c(O)cc(O)c(C(=O)c2ccc(OC(F)(F)F)cc2)c1CC(=O)N(CCO)CCOC` [Compound 88], the “Viability of tumor cells (% viability), Human chronic myelocytic leukemia K562 cells” value [1] is reported as 4%, the “Viability of tumor cells (% viability), Human acute myelocytic leukemia MV4; 11 cells” value [2] is reported as 0% and the “Viability of tumor cells (% viability), Human renal cancer OS-RC-2 cells” value [3] is reported as 17%. For the same compound, the “Viability of tumor cells (% viability), Human prostate cancer 22Rv1 cells” value [4] was 6%.
`CCc1c(O)cc(O)c(C(=O)c2ccc(OC(C)C)cc2)c1CC(=O)N(CCO)CCOC` [Compound 124] was tested, and the “Viability of tumor cells (% viability), Human chronic myelocytic leukemia K562 cells” value [1] was 4%, the “Viability of tumor cells (% viability), Human acute myelocytic leukemia MV4; 11 cells” value [2] was 0% and the “Viability of tumor cells (% viability), Human renal cancer OS-RC-2 cells” value [3] was 15%. For the same compound, the “Viability of tumor cells (% viability), Human prostate cancer 22Rv1 cells” value [4] was 5%.
In the case of `CCc1c(O)cc(O)c(C(=O)c2ccc(SC)cc2)c1CC(=O)N(CCO)CCOC` [Compound 95], the “Viability of tumor cells (% viability), Human chronic myelocytic leukemia K562 cells” value [1] is reported as 4%, the “Viability of tumor cells (% viability), Human acute myelocytic leukemia MV4; 11 cells” value [2] is reported as 0% and the “Viability of tumor cells (% viability), Human renal cancer OS-RC-2 cells” value [3] is reported as 18%. For the same compound, the “Viability of tumor cells (% viability), Human prostate cancer 22Rv1 cells” value [4] was 5%.
In the case of `CCc1c(O)cc(O)c(C(=O)c2ccc(OCCN3CCOCC3)c(OC)c2)c1CC(=O)N(CCOC)CCOC` [Compound 125], the “Viability of tumor cells (% viability), Human chronic myelocytic leukemia K562 cells” value [1] is reported as 4%, the “Viability of tumor cells (% viability), Human acute myelocytic leukemia MV4; 11 cells” value [2] is reported as 0% and the “Viability of tumor cells (% viability), Human renal cancer OS-RC-2 cells” value [3] is reported as 20%. The “Viability of tumor cells (% viability), Human prostate cancer 22Rv1 cells” value [4] was 5%.
In the case of `CCc1c(O)cc(O)c(C(=O)c2ccc(OC)cc2)c1CC(=O)N1CCN(c2ncccn2)CC1` [Compound 32], the “Viability of tumor cells (% viability), Human chronic myelocytic leukemia K562 cells” value [1] is reported as 4%, the “Viability of tumor cells (% viability), Human acute myelocytic leukemia MV4; 11 cells” value [2] is reported as 0% and the “Viability of tumor cells (% viability), Human renal cancer OS-RC-2 cells” value [3] is reported as 17%. The “Viability of tumor cells (% viability), Human prostate cancer 22Rv1 cells” value [4] was 5%.
In the case of `CCc1c(O)cc(O)c(C(=O)c2ccc(OC)c(OC)c2)c1CC(=O)N1CCN(c2ccccc2)CC1` [Compound 41], the “Viability of tumor cells (% viability), Human chronic myelocytic leukemia K562 cells” value [1] is reported as 4%, the “Viability of tumor cells (% viability), Human acute myelocytic leukemia MV4; 11 cells” value [2] is reported as 0% and the “Viability of tumor cells (% viability), Human renal cancer OS-RC-2 cells” value [3] is reported as 18%. The “Viability of tumor cells (% viability), Human prostate cancer 22Rv1 cells” value [4] was 5%.
For `CCc1c(O)cc(O)c(C(=O)c2ccsc2)c1CC(=O)N(CCO)CCOC` [Compound 151], the “Viability of tumor cells (% viability), Human chronic myelocytic leukemia K562 cells” value [1] was 4%, the “Viability of tumor cells (% viability), Human acute myelocytic leukemia MV4; 11 cells” value [2] was 0% and the “Viability of tumor cells (% viability), Human renal cancer OS-RC-2 cells” value [3] was 30%. The “Viability of tumor cells (% viability), Human prostate cancer 22Rv1 cells” value [4] was 5%.
In the case of `CCc1c(O)cc(O)c(C(=O)c2ccc(OC)cc2)c1CC(=O)N1CCC(CO)CC1` [Compound 61], the “Viability of tumor cells (% viability), Human chronic myelocytic leukemia K562 cells” value [1] is reported as 5%, the “Viability of tumor cells (% viability), Human acute myelocytic leukemia MV4; 11 cells” value [2] is reported as 0% and the “Viability of tumor cells (% viability), Human renal cancer OS-RC-2 cells” value [3] is reported as 25%. For the same compound, the “Viability of tumor cells (% viability), Human prostate cancer 22Rv1 cells” value [4] was 5%.
With `CCc1c(O)cc(O)c(C(=O)c2ccc(OCCCN3CCOCC3)c(OC)c2)c1CC(=O)N(CCOC)CCOC` [Compound 149] the “Viability of tumor cells (% viability), Human chronic myelocytic leukemia K562 cells” value [1] was 4%, the “Viability of tumor cells (% viability), Human acute myelocytic leukemia MV4; 11 cells” value [2] was 0% and the “Viability of tumor cells (% viability), Human renal cancer OS-RC-2 cells” value [3] was 20%. The “Viability of tumor cells (% viability), Human prostate cancer 22Rv1 cells” value [4] was 4%.
